These results are taken from patent US10995068B2, “Synthetic sphingolipid-like molecules, drugs, methods of their synthesis and methods of treatment” (The Regents of the University of California, priority 2015, dated 2021).

A short description of data set [1]: Mass spectrometry quantification of SH-BC-893 in plasma and tumor. It is filed as in vivo. Conditions: SW620 xenograft mice, UPLC-MS/MS. As to the method: In many embodiments, exemplary experimentation was carried out to determine whether azacyclic constrained sphingolipid-lipid molecules inhibited neoplastic growth in vivo. To carry out this experimentation, luciferase-expressing SW620 xenografts were generated in mice.
Mass spectrometry quantification of SH-BC-893. As an internal standard, 75 ng FTY720 was added to 50 μl plasma or 50 μl of tumor homogenate (0.25 M sucrose, 25 mM KCl, 50 mM Tris HCl, 0.5 mM EDTA, pH 7.4; 1:9 wt:volume) combined 1:1 with acetonitrile. Proteins were precipitated and removed by centrifugation (10 min at 15,000 rpm) and the supernatant transferred to a fresh tube on ice containing 50 μl of acetonitrile+0.2% acetic acid. After a second de-proteination with acetonitrile+0.2% acetic acid, 20 μl of de-proteinated samples were analyzed by UPLC-MS/MS using a Waters Micromass Quattro Premier XE equipped with a C18 reversed phase column (Waters) with an acetonitrile+0.2% acetic acid gradient elution. The instrument was operated in positive ion mode. Ion transition channels for multiple reaction monitoring were 290→104 for SH-BC-893 with a dwell time of 200 msec. The cone voltage was 30V. Standard curves used for quantitation were linear from 50-1000 ng/ml with an R^2 of 0.98 or greater. Recovery of internal standard was >80%. Tumor concentrations were calculated assuming that 1 gm=1 mL.

Data set [2] has as its system mPCE subcutaneous isografts. The data set can be described thus: mPCE subcutaneous prostate isografts. Type of data set: in vivo. Conditions: C57BL/6 mice. As to the method: The ability of starvation-inducing sphingolipid-like drugs to affect the growth of slow growing or autochthonous neoplasms was also evaluated. In C57BL/6 mice bearing mPCE subcutaneous isografts, 60 mg/kg SH-BC-893 was given daily by gavage and slowed tumor growth by 60% similar to results with SW620 xenografts dosed with 20 mg/kg i.p. (FIGS. 53G-I and 65I). At 120 mg/kg, SH-BC-893 inhibited prostate tumor growth by more than 90% (FIG. 65I). […] Akt activity was slightly elevated by SH-BC-893 consistent with loss of TORC1-mediated negative feedback. Thus, sphingolipid-like compounds, such as SH-BC-893, are effective against neoplasms with distinct molecular defects and metabolic characteristics.
In vivo studies. Experiments conducted in mice were performed in accordance with the Institutional Animal Care and Use Committee of University of California, Irvine following a power analysis conducted in consultation with the Biostatistics Shared Resource of Chao Family Comprehensive Cancer Center at UCI. […] Tumor volume was calculated using the formula, volume (mm^3)=length [mm]×(width [mm])^2×0.52; BLI was measured using an IVIS imaging system (Xenogen). […] Blood chemistry was analyzed by IDEXX BioResearch and complete blood counts were performed using a Hemavet hematology system.

As to `CCCCCCCCc1ccc([C@H]2CCN[C@@H]2CO)cc1.Cl` [Compound 5, (2S,3R)-2-(hydroxymethyl)-3-(4-octylphenyl)Pyrrolidinium chloride], in data set [1], the “concentration in plasma at sacrifice” value is “low micromolar concentrations” and the “concentration in tumors at sacrifice” value is “low micromolar concentrations”. The “slowing of tumor growth” value in data set [2] (60 mg/kg daily by gavage) is given as 60%. Moreover, the “inhibition of prostate tumor growth” value in data set [2] (120 mg/kg) was “more than 90%”.
